These results are taken from paper PMC6120924, “YesU from Bacillus subtilis preferentially binds fucosylated glycans” (Scientific Reports, 2018).

Usually Kd stands for the concentration at which binding is half-saturated. A low value points to a tighter complex.

This test addresses T1, YesU (Bacillus subtilis, UniProt O31524).
T1 construct: captured by His tag on NTA chip
T1 sequence (O31524 1-220): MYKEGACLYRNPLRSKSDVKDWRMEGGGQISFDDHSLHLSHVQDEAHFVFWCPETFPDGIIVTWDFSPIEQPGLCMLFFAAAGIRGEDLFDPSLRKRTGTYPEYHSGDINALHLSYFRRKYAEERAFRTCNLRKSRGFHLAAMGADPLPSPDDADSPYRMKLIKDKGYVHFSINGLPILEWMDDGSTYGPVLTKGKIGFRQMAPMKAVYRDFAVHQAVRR
As to the kind of experiment: SPR, steady state, single cycle, Biacore T100. The note with it: His-YesU on Ni-NTA chip; PBS-MgCl2 pH 7.4; 25 °C. The class given is binding. The text has this: SPR, steady state, single cycle, Biacore T100 on YesU
On the technique in general: In SPR one partner is held on a chip, and binding of the other changes the refractive index at the surface.
As to `C[C@@H]1O[C@@H](O[C@H]2C(O)O[C@H](CO)[C@H](O)[C@@H]2O)[C@@H](O)[C@H](O)[C@@H]1O` (stereo partly drawn) [7F, Fucα1-2Gal], the Kd amounted to 360 ± 10 nM. Regarding `CC(=O)NC1C(OC2C(O)C(COC3OC(CO)C(OC4OC(CO)C(O)C(OC5OC(CO)C(OC6OC(CO)C(O)C(O)C6O)C(O)C5NC(C)=O)C4O)C(OC4OC(C)C(O)C(O)C4O)C3NC(C)=O)OC(OC3C(CO)OC(O)C(O)C3O)C2O)OC(CO)C(OC2OC(CO)C(O)C(O)C2O)C1O` (stereo not drawn) [8N, Galβ1-3GlcNAcβ1-3Galβ1-4(Fucα1-3)GlcNAcβ1-6(Galβ1-3 GlcNAcβ1-3)Galβ1-4Glc], the equilibrium dissociation constant (Kd) amounted to 240 ± 20 nM. As for `CC(=O)N[C@H]1C(O)O[C@H](CO)[C@@H](O[C@@H]2O[C@H](CO)[C@H](O)[C@H](O)[C@H]2O)[C@@H]1O[C@@H]1O[C@@H](C)[C@@H](O)[C@@H](O)[C@@H]1O` (stereo partly drawn) [7I, Galβ1-4(Fucα1-3)GlcNAc], the figure is 150 ± 6 nM. As for `CC(=O)N[C@H]1C(O)O[C@H](CO)[C@@H](O[C@@H]2O[C@H](CO)[C@H](O)[C@H](O)[C@H]2O[C@@H]2O[C@@H](C)[C@@H](O)[C@@H](O)[C@@H]2O)[C@@H]1O` (stereo partly drawn) [7O, Fucα1-2Galβ1-4GlcNAc], the figure is 340 ± 4 nM; as for `CC(=O)N[C@H]1[C@H](O[C@H]2[C@@H](O)[C@@H](CO)O[C@@H](O[C@H]3[C@H](O)[C@@H](O)C(O)O[C@@H]3CO)[C@@H]2O)O[C@H](CO)[C@@H](O[C@@H]2O[C@H](CO)[C@H](O)[C@H](O)[C@H]2O)[C@@H]1O[C@@H]1O[C@@H](C)[C@@H](O)[C@@H](O)[C@@H]1O` (stereo partly drawn) [7C, Galβ1-4(Fucα1-3)GlcNAcβ1-3Galβ1-4Glc], 140 ± 1 nM.

`CC(=O)N[C@H]1[C@H](O[C@H]2[C@H](O)[C@@H](NC(C)=O)[C@H](O[C@H]3[C@H](O)[C@@H](NC(C)=O)C(O)O[C@@H]3CO)O[C@@H]2CO)O[C@H](CO)[C@@H](O[C@@H]2O[C@H](CO)[C@@H](O[C@@H]3O[C@H](CO)[C@@H](O[C@@H]4O[C@H](CO)[C@@H](O)[C@H](O)[C@H]4NC(C)=O)[C@H](O)[C@H]3NC(C)=O)[C@H](O)[C@H]2NC(C)=O)[C@@H]1O` (stereo partly drawn) [4D, GlcNAcβ1-4GlcNAcβ1-4GlcNAcβ1-4GlcNAcβ1-4GlcNAcβ 1-4GlcNAc] showed a dissociation constant (Kd) of 1130 ± 20 nM. As for `CC(=O)N[C@H]1C(O)O[C@H](CO)[C@@H](O[C@@H]2O[C@@H](C)[C@@H](O)[C@@H](O)[C@@H]2O)[C@@H]1O[C@@H]1O[C@H](CO)[C@H](O)[C@H](O)[C@H]1O` (stereo partly drawn) [7J, Galβ1-3(Fucα1-4)GlcNAc], the figure is 420 ± 4 nM.

Compound `CC(=O)N[C@H]1[C@H](O[C@H]2[C@@H](O)[C@@H](CO)O[C@@H](O[C@H]3[C@H](O)[C@@H](O)C(O)O[C@@H]3CO)[C@@H]2O)O[C@H](CO)[C@@H](O[C@@H]2O[C@H](CO)[C@H](O)[C@H](O)[C@H]2O[C@@H]2O[C@@H](C)[C@@H](O)[C@@H](O)[C@@H]2O)[C@@H]1O[C@@H]1O[C@@H](C)[C@@H](O)[C@@H](O)[C@@H]1O` (stereo partly drawn) [8H, Fucα1-2Galβ1-4(Fucα1-3)GlcNAcβ1-3Galβ1-4Glc] displayed a Kd of 1140 ± 30 nM. Consider `CC(=O)N[C@H]1C(O)O[C@H](CO)[C@@H](O[C@@H]2O[C@H](CO)[C@H](O)[C@H](O)[C@H]2O[C@@H]2O[C@@H](C)[C@@H](O)[C@@H](O)[C@@H]2O)[C@@H]1O[C@@H]1O[C@@H](C)[C@@H](O)[C@@H](O)[C@@H]1O` (stereo partly drawn) [7N, Fucα1-2Galβ1-4(Fucα1-3)GlcNAc], for which binding was put at a Kd of 340 ± 2 nM. As for `C[C@@H]1O[C@@H](O[C@H]2C(O)O[C@H](CO)[C@H](O)[C@@H]2O[C@H]2O[C@H](CO)[C@H](O)[C@H](O)[C@H]2O)[C@@H](O)[C@H](O)[C@@H]1O` (stereo partly drawn) [7M, Galα1-3(Fucα1-2)Gal], the figure is 190 ± 3 nM; as for `CC(=O)N[C@H]1C(O)O[C@H](CO)[C@@H](O[C@@H]2O[C@@H](C)[C@@H](O)[C@@H](O)[C@@H]2O)[C@@H]1O[C@@H]1O[C@H](CO)[C@H](O)[C@H](OS(=O)(=O)O)[C@H]1O` (stereo partly drawn) [8A, SO3-3Galβ1-3(Fucα1-4)GlcNAc], 2070 ± 20 nM; as for `CC(=O)N[C@H]1[C@H](O[C@H]2[C@@H](O)[C@@H](CO)O[C@@H](O[C@H]3[C@H](O)[C@@H](O)C(O)O[C@@H]3CO)[C@@H]2O)O[C@H](CO)[C@@H](O[C@@H]2O[C@H](CO)[C@H](O)[C@H](O)[C@H]2O)[C@@H]1O` (stereo partly drawn) [1H, Galβ1-4GlcNAcβ1-3Galβ1-4Glc], 440 ± 20 nM. Take `CC(=O)N[C@H]1[C@@H](O[C@H]2[C@@H](O)[C@@H](CO)OC(O)[C@@H]2O[C@@H]2O[C@@H](C)[C@@H](O)[C@@H](O)[C@@H]2O)O[C@H](CO)[C@H](O)[C@@H]1O` (stereo partly drawn) [7K, GalNAcα1-3(Fucα1-2)Gal]: the Kd turned out to be 7630 ± 300 nM. As for `CC(=O)N[C@H]1[C@H](O[C@H]2[C@@H](O)[C@@H](CO)O[C@@H](O[C@H]3[C@H](O[C@@H]4O[C@@H](C)[C@@H](O)[C@@H](O)[C@@H]4O)[C@@H](O)C(O)O[C@@H]3CO)[C@@H]2O)O[C@H](CO)[C@@H](O[C@@H]2O[C@@H](C)[C@@H](O)[C@@H](O)[C@@H]2O)[C@@H]1O[C@@H]1O[C@H](CO)[C@H](O)[C@H](O)[C@H]1O` (stereo partly drawn) [7E, Galβ1-3(Fucα1-4)GlcNAcβ1-3Galβ1-4(Fucα1-3)Glc], the dissociation constant Kd stood at 340 ± 10 nM.

As for `CC(=O)N[C@H]1[C@H](O[C@H]2[C@@H](O)[C@@H](CO)O[C@@H](O[C@H]3[C@H](O)[C@@H](O)C(O)O[C@@H]3CO)[C@@H]2O)O[C@H](CO)[C@@H](O)[C@@H]1O[C@@H]1O[C@H](CO)[C@H](O)[C@H](O)[C@H]1O[C@@H]1O[C@@H](C)[C@@H](O)[C@@H](O)[C@@H]1O` (stereo partly drawn) [7A, Fucα1-2Galβ1-3GlcNAcβ1-3Galβ1-4Glc], the Kd was found to be 1230 ± 20 nM.
